The values below are quoted from earlier work in patent publication US20070190090A1, “SIALAGOGUE BASED ORAL CARE PRODUCTS” (WhiteHill Oral Technologies, Inc., priority 2006, published 2007).

The conditions of data set [1]: mice, orally.
The test system of data set [2] is certain microorganisms (Gram positive and Gram negative bacteria). The conditions noted are these: toxicity varying for Gram positive and Gram negative bacteria.

With `C/C=C/C=C\CC/C=C/C(=O)NCC(C)C` [affinin, N-isobutyl-2E,6Z,8E-decatrienamide], the analgesic effect entry in data set [1] (doses from 2.5 to 10.0 mg/kg) is “analgesic effect”. In data set [1] (highest dose (10.0 mg/kg)), the deaths result is listed as “two out of five” and the “effect on normal motor activity” value is recorded as “severe depression of normal motor activity”. In data set [2], the “toxicity to certain microorganisms” value is given as “toxic”.
